ChEMBL document CHEMBL4715742, “Design, synthesis and cytotoxic activities of novel 2,5-diketopiperazine derivatives” (Eur J Med Chem, 2016)

Experiments:
K562 [1] = assay: Cytotoxicity against human K562 cells assessed as cell viability at 1.1 uM measured after 24 hrs by CCK8 assay relative to control; assay type: functional; conditions: read-out: Activity
A549 = assay: Cytotoxicity against human A549 cells assessed as reduction in cell viability measured after 72 hrs by CCK8 assay; assay type: functional, cell-based; conditions: Homo sapiens, A549, 72 h; read-out: IC50
U-937 [2] = assay: Induction of apoptosis in human U-937 cells assessed as necrotic cells at 1 uM measured after 48 hrs by annexinV/FITC-propidium iodide staining based flow cytometry (reference value: 0.794 to 0.955 %); assay type: functional
HeLa = assay: Cytotoxicity against human HeLa cells assessed as reduction in cell viability measured after 72 hrs by CCK8 assay; assay type: functional, cell-based; conditions: Homo sapiens, HeLa, 72 h; read-out: IC50
K562 [3] = assay: Cytotoxicity against human K562 cells assessed as reduction in cell viability at 0.37 to 3.3 uM by CCK8 assay; assay type: functional, cell-based; conditions: dose 0.37-3.3 µM, time 24-72 hrs, TDE = time-dependent effect
U-937 [4] = assay: Induction of apoptosis in human U-937 cells assessed as early apoptotic cells at 0.5 uM measured after 48 hrs by annexinV/FITC-propidium iodide staining based flow cytometry (reference value: 1.78 to 1.88 %); assay type: functional
U-937 [5] = assay: Induction of apoptosis in human U-937 cells assessed as late apoptotic cells at 2 uM measured after 24 hrs by annexinV/FITC-propidium iodide staining based flow cytometry (reference value: 2.18 to 2.22 %); assay type: functional
U-937 [6] = assay: Induction of apoptosis in human U-937 cells assessed as necrotic cells at 0.5 uM measured after 48 hrs by annexinV/FITC-propidium iodide staining based flow cytometry (reference value: 0.794 to 0.955 %); assay type: functional
U-937 [7] = assay: Cytotoxicity against human U-937 cells assessed as cell viability at 1.1 uM measured after 48 hrs by CCK8 assay relative to control; assay type: functional; conditions: read-out: Activity
U-937 [8] = assay: Induction of apoptosis in human U-937 cells assessed as viable cells at 0.5 uM measured after 24 hrs by annexinV/FITC-propidium iodide staining based flow cytometry (reference value: 95 to 95.1 %); assay type: functional; conditions: read-out: Activity
U-937 [9] = assay: Induction of apoptosis in human U-937 cells assessed as viable cells at 2 uM measured after 24 hrs by annexinV/FITC-propidium iodide staining based flow cytometry (reference value: 95 to 95.1 %); assay type: functional; conditions: read-out: Activity
U-937 [10] = assay: Cytotoxicity against human U-937 cells assessed as cell viability at 0.37 uM measured after 72 hrs by CCK8 assay relative to control; assay type: functional; conditions: read-out: Activity
K562 [11] = assay: Cytotoxicity against human K562 cells assessed as cell viability at 0.37 uM measured after 72 hrs by CCK8 assay relative to control; assay type: functional; conditions: read-out: Activity
U-937 [12] = assay: Induction of apoptosis in human U-937 cells assessed as late apoptotic cells at 1 uM measured after 24 hrs by annexinV/FITC-propidium iodide staining based flow cytometry (reference value: 2.18 to 2.22 %); assay type: functional
U-937 [13] = assay: Induction of apoptosis in human U-937 cells assessed as early apoptotic cells at 1 uM measured after 48 hrs by annexinV/FITC-propidium iodide staining based flow cytometry (reference value: 1.78 to 1.88 %); assay type: functional
U-937 [14] = assay: Induction of apoptosis in human U-937 cells assessed as viable cells at 0.5 uM measured after 48 hrs by annexinV/FITC-propidium iodide staining based flow cytometry (reference value: 93.7 to 94.2 %); assay type: functional; conditions: read-out: Activity
U-937 [15] = assay: Induction of apoptosis in human U-937 cells assessed as viable cells at 1 uM measured after 24 hrs by annexinV/FITC-propidium iodide staining based flow cytometry (reference value: 95 to 95.1 %); assay type: functional; conditions: read-out: Activity
U-937 [16] = assay: Induction of apoptosis in human U-937 cells assessed as early apoptotic cells at 2 uM measured after 48 hrs by annexinV/FITC-propidium iodide staining based flow cytometry (reference value: 1.78 to 1.88 %); assay type: functional
K562 [17] = assay: Cytotoxicity against human K562 cells assessed as cell viability at 1.1 uM measured after 72 hrs by CCK8 assay relative to control; assay type: functional; conditions: read-out: Activity
U-937 [18] = assay: Induction of apoptosis in human U-937 cells assessed as late apoptotic cells at 0.5 uM measured after 48 hrs by annexinV/FITC-propidium iodide staining based flow cytometry (reference value: 3.27 to 3.41 %); assay type: functional
U-937 [19] = assay: Induction of apoptosis in human U-937 cells assessed as apoptotic ratio at 0.5 uM measured after 24 hrs by annexinV/FITC-propidium iodide staining based flow cytometry (reference value: 3.7 +/- 0.3 %); assay type: functional
U-937 [20] = assay: Induction of apoptosis in human U-937 cells assessed as early apoptotic cells at 2 uM measured after 24 hrs by annexinV/FITC-propidium iodide staining based flow cytometry (reference value: 1.28 to 1.68 %); assay type: functional
DU-145 = assay: Cytotoxicity against human DU-145 cells assessed as reduction in cell viability measured after 72 hrs by CCK8 assay; assay type: functional, cell-based; conditions: Homo sapiens, DU-145, 72 h; read-out: IC50
U-937 [21] = assay: Induction of apoptosis in human U-937 cells assessed as late apoptotic cells at 1 uM measured after 48 hrs by annexinV/FITC-propidium iodide staining based flow cytometry (reference value: 3.27 to 3.41 %); assay type: functional
U-937 [22] = assay: Induction of apoptosis in human U-937 cells assessed as necrotic cells at 0.5 uM measured after 24 hrs by annexinV/FITC-propidium iodide staining based flow cytometry (reference value: 1.12 to 1.48 %); assay type: functional
U-937 [23] = assay: Cytotoxicity against human U-937 cells assessed as reduction in cell viability at 0.37 to 3.3 uM by CCK8 assay; assay type: functional, cell-based; conditions: dose 0.37-3.3 µM, TDE = time-dependent effect
K562 [24] = assay: Cytotoxicity against human K562 cells assessed as cell viability at 3.3 uM measured after 72 hrs by CCK8 assay relative to control; assay type: functional; conditions: read-out: Activity
K562 [25] = assay: Cytotoxicity against human K562 cells assessed as reduction in cell viability measured after 72 hrs by CCK8 assay; assay type: functional, cell-based; conditions: Homo sapiens, K562, 72 h; read-out: IC50
U-937 [26] = assay: Induction of apoptosis in human U-937 cells assessed as necrotic cells at 2 uM measured after 24 hrs by annexinV/FITC-propidium iodide staining based flow cytometry (reference value: 1.12 to 1.48 %); assay type: functional
U-937 [27] = assay: Cytotoxicity against human U-937 cells assessed as cell viability at 0.37 uM measured after 48 hrs by CCK8 assay relative to control; assay type: functional; conditions: read-out: Activity
U-937 [28] = assay: Induction of apoptosis in human U-937 cells assessed as late apoptotic cells at 2 uM measured after 48 hrs by annexinV/FITC-propidium iodide staining based flow cytometry (reference value: 3.27 to 3.41 %); assay type: functional
U-937 [29] = assay: Cytotoxicity against human U-937 cells assessed as cell viability at 1.1 uM measured after 72 hrs by CCK8 assay relative to control; assay type: functional; conditions: read-out: Activity
HL-60 = assay: Cytotoxicity against human HL-60 cells assessed as reduction in cell viability measured after 72 hrs by CCK8 assay; assay type: functional, cell-based; conditions: Homo sapiens, HL-60, 72 h; read-out: IC50
K562 [30] = assay: Cytotoxicity against human K562 cells assessed as cell viability at 1.1 uM measured after 48 hrs by CCK8 assay relative to control; assay type: functional; conditions: read-out: Activity

C=CCn1c(=O)/c(=C/CCCC)[nH]c(=O)/c1=C/c1ccc(OC)cc1
viability at 1.1 µM (K562 [1]): 50%
IC50 (A549): 1.7 µM
Activity (U-937 [2]): 1.04%
IC50 (HeLa): 0.9 µM
Activity (K562 [3]): Tde
Activity (U-937 [4]): 7.77%
Activity (U-937 [5]): 10.3%
Activity (U-937 [6]): 1.05%
viability at 1.1 µM (U-937 [7]): 8.8%
viability at 0.5 µM (U-937 [8]): 88.4%
viability at 2 µM (U-937 [9]): 77.9%
viability at 0.37 µM (U-937 [10]): 58.7%
viability at 0.37 µM (K562 [11]): 86.2%
Activity (U-937 [12]): 8.23%
Activity (U-937 [13]): 10.8%
viability at 0.5 µM (U-937 [14]): 81.4%
viability at 1 µM (U-937 [15]): 82.6%
Activity (U-937 [16]): 9.76%
viability at 1.1 µM (K562 [17]): 17.3%
Activity (U-937 [18]): 8.32%
Activity (U-937 [19]): 10.4%
Activity (U-937 [20]): 9.66%
IC50 (DU-145): 1.7 µM
Activity (U-937 [21]): 14.5%
Activity (U-937 [22]): 1.07%
Activity (U-937 [23]): Tde
viability at 3.3 µM (K562 [24]): 3.5%
IC50 (K562 [25]): 0.6 µM
Activity (U-937 [26]): 1.22%
viability at 0.37 µM (U-937 [27]): 74.9%
Activity (U-937 [28]): 35.1%
viability at 1.1 µM (U-937 [29]): 3.3%
IC50 (HL-60): 0.9 µM
viability at 1.1 µM (K562 [30]): 28.7%
